What was measured:
human PI3Kα protein = target: T1, human PI3Kα protein (Homo sapiens, UniProt P42336); assay: PI3Kα enzyme assay (ADP-Glo); format: biochemical; settings: read-out: PI3Kα enzyme inhibitory activity
T1 construct: purchased Carna Biosciences, Inc; host or cells: baculovirus expression system
Method in brief: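 Biotinylated human PI3Kα (baculovirus-expressed, 4.5 nmol/L) pre-incubated 15 min with compound in Tris-HCl pH 7.5, MgCl2, BSA; reaction 60 min at 25° C with 50 μmol/L PIP2 and 100 μmol/L ATP final. ADP quantified by ADP-Glo luminescence; IC50 calculated.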

[1] = target: T2, GST fusion human ERK2 protein (Homo sapiens, UniProt P28482); assay: ERK2 enzyme assay (2); format: biochemical; settings: ERK2 enzyme assay (2); read-out: ERK2 enzyme inhibitory activity (2)
T2 construct: purchased Carna Biosciences, Inc; host or cells: E. coli expression system
T2 sequence (P28482 whole entry, the tested form may be a part): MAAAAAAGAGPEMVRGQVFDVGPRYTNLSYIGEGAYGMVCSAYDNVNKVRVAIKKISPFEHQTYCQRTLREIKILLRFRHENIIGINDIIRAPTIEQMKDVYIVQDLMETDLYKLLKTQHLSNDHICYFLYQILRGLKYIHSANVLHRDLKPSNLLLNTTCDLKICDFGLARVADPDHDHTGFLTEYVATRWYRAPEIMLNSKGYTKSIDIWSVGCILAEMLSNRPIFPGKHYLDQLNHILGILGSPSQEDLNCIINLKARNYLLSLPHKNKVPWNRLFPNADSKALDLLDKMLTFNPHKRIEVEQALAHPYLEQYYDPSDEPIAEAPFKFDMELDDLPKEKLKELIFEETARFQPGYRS
Method in brief: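 IC50 values come from mobility-shift measurement of phosphorylated versus unphosphorylated 5-FAM peptide substrate after EDTA quench. Beforehand, compound and 1.25 nmol/L E. coli-expressed GST–human ERK2 stood 15 min at room temperature (pH 7.5), then 1 mmol/L ATP and 4.25 μmol/L substrate (final) were added for 120 min at 25 °C.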

CHO-K1 cells = assay: CHO cell toxicity test; format: cell-based, Chinese hamster; settings: Cricetulus griseus; CHO-K1 cells, 24 hours culture with compound, CellTiter-Glo; read-out: IC50 value (concentration at which the number of viable cells was suppressed to 50% or less)
Description: In a CHO cell toxicity test, the following was used.
Cell: CHO-K1 cells (derived from Chinese hamster ovary) Test medium: F-12 MEDIUM+FCS (manufactured by Biowest) having a final concentration of 2%
Detection reagent: CELLTITER-GLO™ LUMINESCENT CELL VIABILITY ASSAY (trade name, manufactured by PROMEGA Corporation)
The CHO-K1 cells were seeded in a 96-well microplate for culture at 5,000 cells/well, and cultured in a CO2 incubator (37° C.) for 24 hours. An evaluation compound (final concentration: from 25.00 μmol/L to 0.20 μmol/L, common ratio: […]) was added thereto, followed by culturing for 24 hours, and the number of viable cells was calculated from emission intensity by CELLTITER-GLO™ (trade name, manufactured by PROMEGA Corporation). In the measurement of the emission intensity, VARIOSKAN FLASH (manufactured by Thermo Fisher Scientific Inc.) was used.
Inhibition ratio (%)=100−(A/B)×100
A: Emission intensity in the presence of a test compound
B: Emission intensity in the absence of a test compound

T1 sequence (P42336 whole entry): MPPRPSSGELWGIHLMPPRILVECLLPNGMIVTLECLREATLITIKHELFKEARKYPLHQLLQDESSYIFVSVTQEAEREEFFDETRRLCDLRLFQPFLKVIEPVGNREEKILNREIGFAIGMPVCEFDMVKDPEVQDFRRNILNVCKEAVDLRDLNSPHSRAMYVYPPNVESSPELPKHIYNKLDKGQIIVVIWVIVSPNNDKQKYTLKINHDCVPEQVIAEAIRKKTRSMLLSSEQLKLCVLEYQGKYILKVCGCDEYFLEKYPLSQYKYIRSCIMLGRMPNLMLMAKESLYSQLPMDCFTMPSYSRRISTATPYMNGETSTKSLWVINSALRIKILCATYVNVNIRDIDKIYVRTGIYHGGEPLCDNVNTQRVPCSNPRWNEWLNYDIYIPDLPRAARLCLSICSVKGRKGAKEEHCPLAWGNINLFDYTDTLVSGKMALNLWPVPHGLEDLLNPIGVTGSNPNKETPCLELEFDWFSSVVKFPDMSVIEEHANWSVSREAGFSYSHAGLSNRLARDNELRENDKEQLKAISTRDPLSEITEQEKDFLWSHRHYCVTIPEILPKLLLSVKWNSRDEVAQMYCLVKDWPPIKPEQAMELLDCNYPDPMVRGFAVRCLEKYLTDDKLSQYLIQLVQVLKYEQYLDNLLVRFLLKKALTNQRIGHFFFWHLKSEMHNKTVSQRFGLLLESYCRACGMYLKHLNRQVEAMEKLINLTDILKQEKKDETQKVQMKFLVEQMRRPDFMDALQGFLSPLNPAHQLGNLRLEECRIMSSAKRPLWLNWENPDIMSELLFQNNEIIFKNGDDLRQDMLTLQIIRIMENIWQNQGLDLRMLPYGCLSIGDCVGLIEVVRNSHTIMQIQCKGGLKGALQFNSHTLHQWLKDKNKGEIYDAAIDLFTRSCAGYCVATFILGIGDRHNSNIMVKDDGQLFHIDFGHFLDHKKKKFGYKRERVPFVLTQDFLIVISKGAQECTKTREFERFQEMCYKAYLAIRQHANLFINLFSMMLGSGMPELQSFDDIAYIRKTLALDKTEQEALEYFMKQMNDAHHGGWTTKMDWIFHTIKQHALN
T1 sequence (P27986 whole entry partner): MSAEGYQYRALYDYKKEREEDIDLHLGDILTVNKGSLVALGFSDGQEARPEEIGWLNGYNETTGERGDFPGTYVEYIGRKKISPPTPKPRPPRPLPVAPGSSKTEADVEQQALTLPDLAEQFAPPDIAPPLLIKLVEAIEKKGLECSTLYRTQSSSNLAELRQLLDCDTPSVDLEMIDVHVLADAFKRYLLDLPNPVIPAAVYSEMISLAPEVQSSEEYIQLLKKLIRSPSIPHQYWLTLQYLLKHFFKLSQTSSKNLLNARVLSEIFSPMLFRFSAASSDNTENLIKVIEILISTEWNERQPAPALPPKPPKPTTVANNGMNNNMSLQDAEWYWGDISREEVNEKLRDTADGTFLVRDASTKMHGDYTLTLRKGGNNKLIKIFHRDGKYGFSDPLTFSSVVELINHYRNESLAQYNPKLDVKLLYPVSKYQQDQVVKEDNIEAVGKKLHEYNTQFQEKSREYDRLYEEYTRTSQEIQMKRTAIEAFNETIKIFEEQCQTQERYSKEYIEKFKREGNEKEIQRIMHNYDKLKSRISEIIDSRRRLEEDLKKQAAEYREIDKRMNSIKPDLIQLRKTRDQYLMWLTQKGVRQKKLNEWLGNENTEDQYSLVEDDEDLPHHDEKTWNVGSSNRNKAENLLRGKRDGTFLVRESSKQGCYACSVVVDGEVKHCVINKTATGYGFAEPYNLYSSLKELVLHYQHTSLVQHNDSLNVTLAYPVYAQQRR

Row | SMILES | IC50 (human PI3Kα protein) [nM] | IC50 [1] [nM] | IC50 (CHO-K1 cells) [nM]
1 | CC(C)c1cnnc(Nc2ccc3ncc(-c4cnn(CCCN5CC6CC(C5)O6)c4)cc3n2)c1 [Example 0637, 7-(1-(3-(6-Oxa-3-azabicyclo[3.1.1]heptan-3-yl)propyl)-1H-pyrazol-4-yl)-N-(5-isopropylpyridazin-3-yl)-1,5-naphthyridine-2-amine] | < 1000 | < 1000 | ≥ 25000
2 | CCc1cnnc(Nc2ccc3ncc(-c4cn(C)nc4C)cc3n2)c1 [Example 0756, 7-(1,3-Dimethyl-1H-pyrazol-4-yl)-N-(5-ethylpyridazin-3-yl)-1,5-naphthyridine-2-amine] | < 1000 | < 1000 | ≥ 25000
3 | CC(C)c1cnnc(Nc2ccc3ncc(-c4cnn(CCCN5C[C@@H](C)O[C@H](C)C5)c4)cc3n2)c1 [Example 0614] | < 1000 | < 1000 | ≥ 25000
4 | CC(C)c1cnnc(Nc2ccc3ncc(-c4cnn(CCCN5CCCC5=O)c4)cc3n2)c1 [Example 0422] | < 1000 | < 1000 | ≥ 25000
5 | CC(C)c1cnnc(Nc2ccc3ncc(-c4cnn(CC(=O)N(C)C)c4)cc3n2)c1 [Example 0549, 2-(4-(6-((5-Isopropylpyridazin-3-yl)amino)-1,5-naphthyridin-3-yl)-1H-pyrazol-1-yl)-N,N-dimethylacetamide] | < 1000 | < 1000 | ≥ 25000
6 | CCN(CC)c1cnnc(Nc2ccc3ncc(-c4cnn(C)c4)cc3n2)c1 [Example 0517] | < 1000 | < 1000 | ≥ 25000
7 | CC(C)c1cnnc(Nc2ccc3ncc(-c4cnn(CCCN5CC(N)C5)c4)cc3n2)c1 [Example 0695, 7-(1-(3-(3-aminoazetidin-1-yl)propyl)-1H-pyrazol-4-yl)-N-(5-isopropylpyridazin-3-yl)-1,5-naphthyridine-2-amine] | < 1000 | < 1000 | ≥ 25000

Now from value to molecule, other results behind:

Row | IC50 (human PI3Kα protein) [nM] | IC50 [1] [nM] | SMILES | IC50 (CHO-K1 cells) [nM]
8 | < 1000 | < 1000 | CC(C)c1cnnc(Nc2ccc3ncc(-c4cnn(CCCN5CCOCC5(C)C)c4)cc3n2)c1 [Example 0657] | ≥ 25000
9 | < 1000 | < 1000 | CC(C)c1cnnc(Nc2ccc3ncc(-c4cnn(CCCN5CCC(O)CC5)c4)cc3n2)c1 [Example 0430] | ≥ 25000
10 | < 1000 | < 1000 | CC(C)c1cnnc(Nc2ccc3ncc(-c4cnn(CCCN5[C@H](C)CCC[C@@H]5C)c4)cc3n2)c1 [Example 0432] | ≥ 25000
11 | < 1000 | < 1000 | COC(CN1CCCC1)Cn1cc(-c2cnc3ccc(Nc4cc(C(C)C)cnn4)nc3c2)cn1 (stereo not drawn) [Example 0725, N-(5-isopropylpyridazin-3-yl)-7-(1-(2-methoxy-3-(pyrrolidin-1-yl)propyl)-1H-pyrazol-4-yl)-1,5-naphthyridine-2-amine] | ≥ 25000
12 | < 1000 | < 1000 | COCC1COCCN1CCCn1cc(-c2cnc3ccc(Nc4cc(C(C)C)cnn4)nc3c2)cn1 (stereo not drawn) [Example 0691] | ≥ 25000
13 | < 1000 | < 1000 | CC(C)c1cnnc(Nc2ccc3ncc(-c4cnn(CCC5CCN(C)CC5)c4)cc3n2)c1 [Example 0487, N-(5-isopropylpyridazin-3-yl)-7-(1-(2-(1-methylpiperidin-4-yl)ethyl)-1H-pyrazol-4-yl)-1,5-naphthyridine-2-amine] | ≥ 25000
14 | < 1000 | < 1000 | Cc1cc(-c2nn(C)cc2-c2cnc3ccc(Nc4cc(C(C)C)cnn4)nc3c2)ccn1 [Example 0738] | ≥ 25000
15 | < 1000 | < 1000 | CC(C)c1cnnc(Nc2ccc3ncc(-c4cnn(CCCN5CC(C(=O)N(C)C)C5)c4)cc3n2)c1 [Example 0688] | ≥ 25000
16 | < 1000 | < 1000 | CC(C)c1cnnc(Nc2ccc3ncc(-c4cnn(C5CN(C)C5)c4)cc3n2)c1 [Example 0490] | ≥ 25000
